According to patent EP0437790B1, “Antithrombotic compounds” (MERRELL DOW PHARMACEUTICALS INC., priority 1989, dated 1991):

Key:
5HT₂ receptor [1] = assay: 5-DMT head twitch test; type: in vivo; conditions: ip; mice; head twitch induced by 5-methoxy-N,N-dimethyltryptamine
Description: Psychopharmacol., Vol. 3, pages 89-92, (1979). The administration of 5-methoxy-N,N-dimethyltryptamine (DMT) to mice typically produces a characteristic head twitch in the mice. In this test, the mice are administered 5-DMT and a test compound. An absence of head twitches in the mice is considered to be predictive of the ability of the test compound to antagonize the 5HT₂ receptor in vivo.

5HT₂ receptor [2] = target: T1, 5HT₂ receptor (Rattus norvegicus, UniProt P14842); assay: [³H] spiroperidol binding test; conditions: decrease in binding of [³H] spiroperidol to 5HT₂ receptors; read-out: IC₅₀
T1 construct: from tissue; host or cells: Brain membranes (rat frontal cortex)
From the text: As noted above, the compounds are also serotonin 5HT₂ antagonists. […] In this test, 5HT₂ receptors are exposed to both [³H] spiroperidol, (a substance known to have a specific affinity for the receptor) and the test compound. The extent to which there is a decrease in binding of the [³H] spiroperidol to the receptor is indicative of the affinity of the test compound for the 5HT₂ receptor.
1-(4-Fluorophenyl)-2-[4-[(4-methanesulfonamidophenyl)carbonyl]-1-piperidinyl]-ethanone (Compound #1) and 1-(4-fluorophenyl)-2-[4-[(4-acetamidophenyl)carbonyl]-1-piperidinyl]-ethanone (Compound #2) were tested in this procedure. For comparative purposes, 1-(3-pyridyl)-2-[4-[(4-methanesulfonamidophenyl)carbonyl]-1-piperidinyl]-ethanone (Compound #3) was also tested.

canine = canine model of cyclic coronary blood flow reduction (Folts); type: in vivo; conditions: Canis lupus familiaris, iv, cyclic flow reduction of the left anterior descending coronary artery, read-out: DOSAGE TO PREVENT CFR
From the text: This procedure is well known in the art and has been described by John D. Folts, Edward B. Crowell Jr. and George G. Rowe, Circulation Vol 54, pages 365-370 (1976).
In Folts's model, the left anterior descending coronary artery of a canine is surgically isolated and the endothelial lining of this artery is purposefully damaged by squeezing the vessel in order to insure that the platelets will have the opportunity to come in contact with the collagen underlying the endothelial lining. This initiates the process of thrombus formation which was described above. An electronic flow probe is then placed on the artery so that blood flow through this vessel can be measured. A constrictor is then placed around the artery to produce a critical stenosis. The stenosis is said to be critical because the degree of stenosis is adjusted to abolish the hyperemic response following a 15 second occlusion of the artery. Shortly after producing the critical stenosis, blood flow through this segment of coronary artery will slowly decrease to near zero followed by a sudden return to control levels. The slow decrease in blood flow is caused by the formation of a platelet thrombus which occludes the artery. The sudden return of blood flow is due to dislodgement of the thrombus and/or its resulting conversion into an emboli.
This model can be utilized to test compounds for the ability to inhibit platelet aggregation and therefore prevent the formation of thrombi.
1-(4-Fluorophenyl)-2-[4-[(4-methanesulfonamidophenyl)carbonyl]-1-piperidinyl]-ethanone (Compound #1) and 1-(4-fluorophenyl)-2-[4-[(4-acetamidophenyl)carbonyl]-1-piperidinyl]-ethanone (Compound #2) were tested in this model. For comparative purposes, 1-(3-pyridyl)-2-[4-[(4-methanesulfonamidophenyl)carbonyl]-1-piperidinyl]-ethanone (Compound #3) was also tested in this model. This compound was prepared and described in Example 35 of European Patent Application 0 235 752, supra.

T1 sequence (P14842 whole entry): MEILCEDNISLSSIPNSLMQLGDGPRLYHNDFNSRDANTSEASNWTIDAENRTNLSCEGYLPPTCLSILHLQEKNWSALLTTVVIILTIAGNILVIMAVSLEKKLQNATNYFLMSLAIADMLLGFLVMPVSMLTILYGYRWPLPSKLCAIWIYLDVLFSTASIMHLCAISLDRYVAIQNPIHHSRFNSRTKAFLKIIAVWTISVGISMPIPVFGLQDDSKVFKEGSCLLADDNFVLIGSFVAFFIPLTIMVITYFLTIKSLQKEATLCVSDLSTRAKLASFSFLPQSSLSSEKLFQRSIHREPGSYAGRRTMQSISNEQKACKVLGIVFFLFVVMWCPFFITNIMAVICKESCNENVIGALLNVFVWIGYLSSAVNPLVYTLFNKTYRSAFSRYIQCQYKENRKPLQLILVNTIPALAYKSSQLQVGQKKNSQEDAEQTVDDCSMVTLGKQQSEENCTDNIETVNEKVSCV

Structure (SMILES)	ED₅₀ FOR ABOLITION OF HEAD TWITCH (5HT₂ receptor [1])	IC50 (5HT₂ receptor [2])	minimal effective dose (canine)
CS(=O)(=O)Nc1ccc(C(=O)C2CCN(CC(=O)c3ccc(F)cc3)CC2)cc1 [Compound #1, 1-(4-Fluorophenyl)-2-[4-[(4-methanesulfonamidophenyl)carbonyl]-1-piperidinyl]-ethanone]	0.034 mg/kg	78 nM	0.001 mg/kg
CC(=O)Nc1ccc(C(=O)C2CCN(CC(=O)c3ccc(F)cc3)CC2)cc1 [Compound #2, 1-(4-fluorophenyl)-2-[4-[(4-acetamidophenyl)carbonyl]-1-piperidinyl]-ethanone]	0.051 mg/kg	20 nM	0.001 mg/kg
CS(=O)(=O)Nc1ccc(C(=O)C2CCN(CC(=O)c3cccnc3)CC2)cc1 [Compound #3, 1-(3-pyridyl)-2-[4-[(4-methanesulfonamidophenyl)carbonyl]-1-piperidinyl]-ethanone, reference compound]	> 200 mg/kg	> 5000 nM	> 0.1 mg/kg
